Experiment [1] has as its target T1, human recombinant CB2 receptor (Homo sapiens, UniProt P34972). The experiment in a line: CB2 binding, [3H]CP55,940 displacement, membranes from transfected COS cells. Further details: purchased Perkin-Elmer; host or cells: COS cells. The note with it: values in nM.
The target of experiment [2] is T2, CB1 receptors (Mus musculus, UniProt P47746).
T2 construct: using mouse brain membranes containing CB1 receptors; from tissue; host or cells: mouse brain membranes
Nature of the experiment: [35S]GTP-γ-S binding, mouse brain membranes. The experiment is classed as biochemical. The note with it: mouse brain membranes. The method, then:
These assays were performed as previously described (Thomas et al., 2005), using mouse brain membranes containing CB1 receptors or CHO cells stably over-expressing the human recombinant CB2 receptor (10 μg/ml protein), 0.7 nM [^35S]GTP-γ-S and 320 μM GDP, and a final assay volume of 250 μl. Results were compared to the potent CB1 and CB2 receptor agonist CP55940, purchased from Cayman Chemicals, Ann Arbour, Mich., USA.
A general note: GTPγS is a poorly hydrolysed GTP analogue; its binding reports G protein activation.

Experiment [3] concerns the target T1, human recombinant CB2 receptor. The experiment in a line: [35S]GTP-γ-S binding, CHO cells over-expressing hCB2. The experiment is classed as biochemical. On the set-up: expressed in transfected cells; host or cells: CHO cells (stably over-expressing). The source says: Results were compared to the potent CB1 and CB2 receptor agonist CP55940, purchased from Cayman Chemicals, Ann Arbour, Mich., USA.

Experiment [4] addresses T3, human recombinant CB1 receptor (Homo sapiens, UniProt P21554). Format: binding. Further details: purchased Perkin-Elmer; host or cells: COS cells.
Experiment [5] addresses T3, human recombinant CB1 receptor. The experiment in a line: Forskolin-induced cAMP formation in CHO cells over-expressing hCB1. The experiment is classed as cell-based. On the set-up: expressed in transfected cells; host or cells: CHO cells. The procedure:
(§1) After incubation, 800 μl of methanol were added, cells were extracted and cyclic AMP was determined with a cyclic AMP assay kit (Amersham, UK), in accordance with the supplier's recommendations.
On the technique in general: cAMP levels reflect the balance of adenylyl cyclase and phosphodiesterase activity.

The target of experiment [6] is T4, CB1 cannabinoid receptors (Mus musculus, UniProt P47746).
T4 construct: N18TG2 mouse neuroblastoma cells, which constitutively and selectively express the CB 1 cannabinoid receptors; endogenous in cells; host or cells: N18TG2 mouse neuroblastoma cells
Nature of the experiment: Forskolin-induced cyclic AMP in N18TG2 neuroblastoma cells. Format: cell-based. The procedure: as §1

In experiment [7] the target is T1, human recombinant CB2 receptor. The experiment in a line: Forskolin-induced cAMP formation in CHO cells over-expressing hCB2. The experiment is classed as cell-based. Further details: expressed in transfected cells; host or cells: CHO cells (stably over-expressing). The procedure: as §1
The target in experiment [8] is T5, Fatty Acid Amide Hydrolase (FAAH) (Rattus norvegicus, UniProt P97612).
T5 sequence (P97612 1-579): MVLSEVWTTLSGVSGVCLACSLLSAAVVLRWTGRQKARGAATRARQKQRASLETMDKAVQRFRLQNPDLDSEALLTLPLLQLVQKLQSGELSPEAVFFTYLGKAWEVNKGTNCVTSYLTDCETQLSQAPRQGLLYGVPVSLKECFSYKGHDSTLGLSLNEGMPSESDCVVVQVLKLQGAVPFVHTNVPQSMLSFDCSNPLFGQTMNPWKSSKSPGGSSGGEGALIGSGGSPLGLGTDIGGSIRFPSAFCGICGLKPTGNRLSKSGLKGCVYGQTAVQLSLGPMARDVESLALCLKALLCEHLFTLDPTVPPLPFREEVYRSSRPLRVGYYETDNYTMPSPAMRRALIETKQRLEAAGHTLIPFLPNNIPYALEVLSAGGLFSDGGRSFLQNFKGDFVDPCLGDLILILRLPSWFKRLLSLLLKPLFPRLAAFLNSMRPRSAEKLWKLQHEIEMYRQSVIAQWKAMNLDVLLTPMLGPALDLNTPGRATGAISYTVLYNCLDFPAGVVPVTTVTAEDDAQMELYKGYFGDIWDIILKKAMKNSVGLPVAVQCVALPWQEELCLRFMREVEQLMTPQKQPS
Nature of the experiment: biochemical. The method, then: Assay for Fatty Acid Amide Hydrolase (FAAH)
The effect of compounds on the enzymatic hydrolysis of [^14C]anandamide (6 μM) was studied using membranes prepared from rat brain incubated with increasing concentrations of compounds in 50 mM Tris-HCl, pH 9, for 30 minutes at 37° C. (Di Marzo et al., 2002). [^14C]ethanolamine produced from [^14C]anandamide hydrolysis was measured counting the scintillation of the aqueous phase after extraction of the incubation mixture with 2 volumes of CHCl3/CH3OH (2:1 by volume). […]

In experiment [9] the test system is Anandamide Membrane Transporter (AMT). The experiment in a line: Anandamide uptake by RBL-2H3 cells. The experiment is classed as cell-based. The note with it: anandamide uptake, read-out: AMT IC50. The procedure:
Assay for the Anandamide Membrane Transporter (AMT)
The effect of the compounds on the uptake of anandamide by the RBL-2H3 cells was studied as described (Di Marzo et al., 2002). Cells were incubated with [^14C]anandamide (4 μM) for 5 minutes at 37° C., in the presence or absence of varying concentrations of the inhibitors. Residual [^14C]anandamide in the incubation media after extraction with CHCl3/CH3OH (2:1 by volume) was used as a measure of the anandamide that was taken up by cells. Data are expressed as the concentration that produces 50% of inhibition of anandamide uptake (IC50) calculated with GraphPad.

T3 sequence (P21554 whole entry): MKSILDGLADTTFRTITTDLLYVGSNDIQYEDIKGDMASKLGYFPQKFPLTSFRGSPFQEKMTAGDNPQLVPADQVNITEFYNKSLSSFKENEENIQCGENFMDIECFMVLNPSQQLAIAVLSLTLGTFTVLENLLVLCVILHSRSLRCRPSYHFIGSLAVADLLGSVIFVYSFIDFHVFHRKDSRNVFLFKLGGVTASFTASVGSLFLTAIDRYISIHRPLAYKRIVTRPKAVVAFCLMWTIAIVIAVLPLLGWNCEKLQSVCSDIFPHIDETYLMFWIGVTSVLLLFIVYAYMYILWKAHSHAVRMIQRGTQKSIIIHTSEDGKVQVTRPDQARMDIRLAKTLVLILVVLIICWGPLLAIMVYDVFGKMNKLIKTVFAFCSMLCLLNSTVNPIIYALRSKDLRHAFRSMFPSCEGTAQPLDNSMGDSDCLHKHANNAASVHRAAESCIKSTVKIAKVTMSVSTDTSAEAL
T1 sequence (P34972 whole entry): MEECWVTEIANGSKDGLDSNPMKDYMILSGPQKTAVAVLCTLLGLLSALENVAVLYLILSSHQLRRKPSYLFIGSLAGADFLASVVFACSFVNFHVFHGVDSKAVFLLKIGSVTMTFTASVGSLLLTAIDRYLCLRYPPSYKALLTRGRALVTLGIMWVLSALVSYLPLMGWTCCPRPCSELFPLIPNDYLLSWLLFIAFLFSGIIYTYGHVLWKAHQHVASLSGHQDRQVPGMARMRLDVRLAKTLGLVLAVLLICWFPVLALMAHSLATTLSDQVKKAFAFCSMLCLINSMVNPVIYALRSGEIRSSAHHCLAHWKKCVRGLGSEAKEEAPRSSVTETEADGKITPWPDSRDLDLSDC
T4 sequence (P47746 whole entry): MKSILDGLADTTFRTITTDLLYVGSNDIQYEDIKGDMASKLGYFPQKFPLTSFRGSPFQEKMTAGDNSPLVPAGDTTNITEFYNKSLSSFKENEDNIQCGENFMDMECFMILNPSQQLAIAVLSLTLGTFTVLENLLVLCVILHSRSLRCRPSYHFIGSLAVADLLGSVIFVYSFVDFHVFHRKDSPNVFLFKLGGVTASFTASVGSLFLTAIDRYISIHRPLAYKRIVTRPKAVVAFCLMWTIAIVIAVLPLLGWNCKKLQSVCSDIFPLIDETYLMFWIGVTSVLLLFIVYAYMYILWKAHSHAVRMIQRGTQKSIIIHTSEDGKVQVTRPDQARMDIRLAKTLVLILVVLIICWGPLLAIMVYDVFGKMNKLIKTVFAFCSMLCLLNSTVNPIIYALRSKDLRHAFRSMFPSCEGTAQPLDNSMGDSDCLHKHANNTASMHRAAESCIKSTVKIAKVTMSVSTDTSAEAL
T2 sequence (P47746 whole entry): as above

As usually defined, the Ki is the dissociation constant of the complex between target and ligand, obtained from inhibition or displacement. In general, IC50 refers to the point on the concentration scale where inhibition reaches its midpoint. The term EC50 denotes the midpoint of the concentration-response curve. Consider `CCCCCc1cc(O)cc(OCCCCCCCCCCC(=O)NC2CC2)c1` [Compound 25, 11-(3-Hydroxy-5-pentyl-phenoxy)-undecanoic acid cyclopropylamide], for which the values for the inhibition constant Ki in experiment [1] and in experiment [4] were 13 nM and 5.2 nM, respectively. Further, the “functional behaviour in GTP-γ-S-binding” value in experiment [2] is on record as “agonist action”. In addition, the concentration for half-maximal inhibition (IC50) in experiment [2] (read-out: IC50, stimulation of GTP-γ-S-binding) is 150 nM; in [8], more than 10000 nM; in [9], 17000 nM. For the same molecule, in experiment [3] (CHO hCB2), the “antagonism of CP55940-induced stimulation of GTP-γ-S binding (in words)” value is “block the effect of CP55940”. In addition, the “effect on GTP-γ-S-binding (in words)” value in experiment [3] (CHO hCB2) is given as “no significant stimulation or inhibition”. In experiment [3] (Test 1 and Test 2, CHO hCB2), the “functional behaviour at CB2 receptors” value was “neutral (“silent”) antagonists”. Moreover, the results for the EC50 in experiment [5], in experiment [6] and in [7] were 1600 nM, 13 nM and more than 10000 nM, respectively. Moreover, the “hCB1 % effect with 10 μM” value in [5] (10 μM, forskolin-induced cAMP formation, CHO hCB1) is 63%. In addition, the “functional behaviour at human recombinant CB1” value in experiment [5] (Test 1, CHO hCB1, inhibit forskolin-induced cAMP formation) is listed as “partial agonists”. Also, the “functional behaviour at CB1 receptors” value in [6] (N18TG2 cells, cAMP) is listed as “inverse agonist/antagonist”. Besides, the “hCB2 % effect with 10 μM” value in experiment [7] (10 μM, forskolin-induced cAMP formation, CHO hCB2) is on record as 26%. Besides, in experiment [7] (CHO hCB2), the “effect on forskolin-induced cAMP formation (in words)” value is recorded as “no significant effect”.

The values above are taken from patent publication US20090043129A1 (priority 2005, published 2009).
